≈ marks a conversion by molar mass, not a printed value. Like-named read-outs stand apart in the source and are kept apart here.
Assays:
[1] = tested on: H. influenzae; test: microbe, parasite or virus in culture; type: cell-based; conditions: Haemophilus influenzae
[2] = tested on: M. catarrhalis; test: microbe, parasite or virus in culture; type: cell-based; conditions: Moraxella catarrhalis
[3] = tested on: S. pneumoniae; test: microbe, parasite or virus in culture; type: cell-based; conditions: Streptococcus pneumoniae
[4] = tested on: H. influenzae; test: microbe, parasite or virus in culture; type: cell-based; conditions: Haemophilus influenzae; remark: listed apart in the source
[5] = tested on: M. catarrhalis; test: microbe, parasite or virus in culture; type: cell-based
[6] = tested on: S. aureus MSSA; test: microbe, parasite or virus in culture; type: cell-based; conditions: Staphylococcus aureus
[7] = tested on: S. aureus MRSA; test: microbe, parasite or virus in culture; type: cell-based; conditions: Staphylococcus aureus
[8] = tested on: K. pneumoniae; test: microbe, parasite or virus in culture; type: cell-based; conditions: Klebsiella pneumoniae
[9] = tested on: S. pneumoniae (Sp); test: microbe, parasite or virus in culture; type: cell-based; conditions: Streptococcus pneumoniae
[10] = tested on: Porphyromonas gingivalis; test: microbe, parasite or virus in culture; type: cell-based, P. gingivalis; conditions: read-out: MIC of mutants
[11] = tested on: intracellular P. gingivalis in KB cells; type: cell-based
[12] = tested on: S. pneumoniae
[13] = 90% CI 86 to 97%
[14] = tested on: MSSA
[15] = tested on: MSSA; test: microbe, parasite or virus in culture; conditions: Staphylococcus aureus
[16] = tested on: MRSA; test: microbe, parasite or virus in culture; conditions: Staphylococcus aureus
[17] = set-up: species or system human; conditions: in vivo
[18] = tested on: S. aureus (SA); test: microbe, parasite or virus in culture; type: cell-based; conditions: Staphylococcus aureus
[19] = tested on: Coag neg staphylococci (CoNS); test: organism not typed; type: cell-based
[20] = tested on: Enterococcus spp. (ESP); test: microbe, parasite or virus in culture; type: cell-based
[21] = tested on: S pneumoniae (SPN); test: microbe, parasite or virus in culture; type: cell-based
[22] = tested on: Viridans group streptococci (VGS); test: organism not typed; type: cell-based
[23] = tested on: Enterobacteriaceae (ENT); test: organism not typed; type: cell-based
[24] = tested on: E. coli ESBL; test: microbe, parasite or virus in culture; type: cell-based
[25] = tested on: Klebsiella spp. ESBL; test: microbe, parasite or virus in culture; type: cell-based
[26] = tested on: all resistant organism subsets; type: cell-based
[27] = tested on: S. aureus and/or streptococci; conditions: 30 of 35 pts
[28] = tested on: S. pneumoniae (SPN)
[29] = tested on: H. influenzae (Hi)
[30] = tested on: Enterobacter spp. (ENT)
[31] = tested on: beta-streptococci (BST); test: organism not typed
[32] = tested on: S. aureus and/or streptococcal baseline pathogens; test: microbe, parasite or virus in culture; conditions: Staphylococcus aureus, read-out: MIC values
[33] = tested on: S. pneumoniae (SPN); test: microbe, parasite or virus in culture; conditions: Streptococcus pneumoniae
[34] = tested on: H. influenzae (Hi); test: microbe, parasite or virus in culture; conditions: Haemophilus influenzae
[35] = tested on: M. catarrhalis (MCAT); test: microbe, parasite or virus in culture; conditions: Moraxella catarrhalis
[36] = tested on: S. aureus (SA); test: microbe, parasite or virus in culture; conditions: Staphylococcus aureus
[37] = tested on: Klebsiella spp. (KSP); test: microbe, parasite or virus in culture
[38] = tested on: Enterobacter spp. (ENT); test: microbe, parasite or virus in culture
[39] = tested on: Acinetobacter spp. (AC); test: microbe, parasite or virus in culture
[40] = tested on: E. coli (EC); test: microbe, parasite or virus in culture; conditions: Escherichia coli
[41] = tested on: Serratia spp. (SER); test: microbe, parasite or virus in culture
[42] = tested on: P. aeruginosa (PSA); test: microbe, parasite or virus in culture; conditions: Pseudomonas aeruginosa
[43] = tested on: Streptococcus pneumoniae; test: microbe, parasite or virus in culture; type: cell-based, S. pneumoniae
[44] = in vivo

COc1c(N2CCNC(C)C2)c(F)cc2c(=O)c(C(=O)O)cn(C3CC3)c12 (centres unmarked) [GFX, gatifloxacin]
MIC50 [1]: ≤ 0.03 µg/mL | MIC50 [2]: ≤ 0.03 µg/mL

COc1c(N2C[C@@H]3CCCN[C@@H]3C2)c(F)cc2c(=O)c(C(=O)O)cn(C3CC3)c12 [moxifloxacin]
MIC90 [3]: 0.19 µg/mL (≈ 0.473 µM) | MIC90 [4]: 0.125 µg/mL (≈ 0.311 µM) | susceptible (%) [5]: 100% | MIC90 ([5]; Moraxella catarrhalis): 0.125 µg/mL (≈ 0.311 µM) | MIC90 [6]: 1 µg/mL (≈ 2.49 µM) | MIC90 [7]: 8 µg/mL (≈ 19.9 µM) | MIC90 [8]: 0.75 µg/mL (≈ 1.87 µM) | MIC90 [9]: 0.25 µg/mL (≈ 0.623 µM) | MIC [10]: > 32 µg/mL | concentration killing all intracellular P. gingivalis [11]: 100 fold MIC | %I ([12]; 2002 (n = 103)): 3% | %R ([12]; 2002 (n = 103)): 1% | %S ([12]; 2002 (n = 103)): 96% | %I ([12]; 2003 (n = 137)): 0% | %R ([12]; 2003 (n = 137)): 1.5% | %S ([12]; 2003 (n = 137)): 98.5% | %I ([12]; 2004 (n = 110)): 0% | %R ([12]; 2004 (n = 110)): 0% | %S ([12]; 2004 (n = 110)): 100% | AUC point estimate B/A [13]: 91% | AUC point estimate C/A [13]: 91% | more active than ciprofloxacin [14]: 4 fold | MIC50 [15]: 0.25 µg/mL (≈ 0.623 µM) | MIC90 [16]: ≥ 16 µg/mL

C[C@@H](O)[C@H]1C(=O)N2C(C(=O)O)=C(S[C@@H]3CN[C@H](C(=O)Nc4cccc(C(=O)O)c4)C3)[C@H](C)[C@H]12 [ETP]
Adjusted LOS [17]: 11.9

CN(C)c1cc(NC(=O)CNC(C)(C)C)c(O)c2c1C[C@H]1C[C@H]3[C@H](N(C)C)C(O)=C(C(N)=O)C(=O)[C@@]3(O)C(O)=C1C2=O [tigecycline]
MIC50 [18]: 0.25 µg/mL (≈ 0.427 µM) | MIC90 [18]: 0.5 µg/mL (≈ 0.854 µM) | MIC50 [19]: ≤ 0.12 µg/mL | MIC90 [19]: 0.5 µg/mL (≈ 0.854 µM) | MIC50 ([20]; Enterococcus): ≤ 0.12 µg/mL | MIC90 ([20]; Enterococcus): 0.25 µg/mL (≈ 0.427 µM) | MIC 50% ([20]; Van B (95)): ≤ 0.12 mg/L | MIC 90% ([20]; Van B (95)): 0.25 mg/L (≈ 0.427 µM) | % inhibited at ≤ 2 mg/L ([21]; CIP-R (171)): 100% | MIC 50% ([21]; CIP-R (171)): ≤ 0.12 mg/L | MIC50 ([21]; Streptococcus pneumoniae): ≤ 0.12 µg/mL | MIC90 ([21]; Streptococcus pneumoniae, CIP-R (171)): ≤ 0.12 µg/mL | MIC90 ([21]; Streptococcus pneumoniae, TET R (733)): ≤ 0.12 µg/mL | MIC90 ([21]; Streptococcus pneumoniae, […]): 0.12 µg/mL (≈ 0.205 µM) | % inhibited at ≤ 2 mg/L ([21]; TET R (733)): >99% | % inhibited at ≤ 4 mg/L ([21]; TET R (733)): >99% | MIC 50% ([21]; TET R (733)): ≤ 0.12 mg/L | % inhibited at ≤ 2 mg/L ([21]; […]): 100% | MIC50 [22]: ≤ 0.12 µg/mL | MIC90 [22]: 0.12 µg/mL (≈ 0.205 µM) | % inhibited at ≤ 4 mg/L [23]: 98% | MIC50 [23]: 0.5 µg/mL (≈ 0.854 µM) | MIC 50% [23]: 0.25 mg/L (≈ 0.427 µM) | MIC90 [23]: 4 µg/mL (≈ 6.83 µM) | MIC 90% [23]: 2 mg/L (≈ 3.41 µM) | % inhibited at ≤ 2 mg/L ([24]; (279)): >99% | % inhibited at ≤ 4 mg/L ([24]; (279)): 100% | MIC50 ([24]; Escherichia coli): 0.25 µg/mL (≈ 0.427 µM) | MIC90 ([24]; Escherichia coli): 0.5 µg/mL (≈ 0.854 µM) | % inhibited at ≤ 4 mg/L ([25]; (317)): 100% | MIC50 ([25]; Klebsiella): 0.5 µg/mL (≈ 0.854 µM) | MIC90 ([25]; Klebsiella): 2 µg/mL (≈ 3.41 µM) | Total % Inhibited at ≤ 2 mg/L [26]: 97% | Total % Inhibited at ≤ 4 mg/L [26]: >99% | clinical cure [27]: 85.7% | MIC90 ([28]; NP): ≤0.12/≤0.12 mg/L | MIC50 ([28]; NP (117)): ≤0.12/≤0.12 mg/L | MIC90 ([29]; NP): 1 mg/L (≈ 1.71 µM) | MIC50 ([29]; NP (16)): 0.5 mg/L (≈ 0.854 µM) | % ≤2 mg/L [30]: 98% | % ≤4 mg/L [30]: 100% | MIC50 [31]: ≤ 0.12 µg/mL | MIC90 [31]: ≤ 0.12 µg/mL | MIC [32]: 0.06 to 0.5 µg/mL (≈ 0.102 to 0.854 µM) | MIC50 [33]: ≤ 0.12 µg/mL | MIC90 [33]: ≤ 0.12 µg/mL | MIC50 [34]: 0.5 µg/mL (≈ 0.854 µM) | MIC90 [34]: 1 µg/mL (≈ 1.71 µM) | MIC90 [35]: 0.25 µg/mL (≈ 0.427 µM) | MIC50 ([35]; CARTI (600)): ≤ 0.12 µg/mL | MIC50 ([35]; NP (7)): 0.25 µg/mL (≈ 0.427 µM) | MIC50 [36]: 0.25 µg/mL (≈ 0.427 µM) | MIC90 [36]: 0.5 µg/mL (≈ 0.854 µM) | MIC50 [37]: 0.5 µg/mL (≈ 0.854 µM) | MIC90 [37]: 1 µg/mL (≈ 1.71 µM) | MIC ([37]; read-out: MICs): ≤ 2 µg/mL | MIC50 [38]: 0.5 µg/mL (≈ 0.854 µM) | MIC90 [38]: 2 µg/mL (≈ 3.41 µM) | MIC50 [39]: 1 µg/mL (≈ 1.71 µM) | MIC90 [39]: 4 µg/mL (≈ 6.83 µM) | MIC50 [40]: 0.25 µg/mL (≈ 0.427 µM) | MIC90 [40]: 0.5 µg/mL (≈ 0.854 µM) | MIC ([40]; read-out: MICs): ≤ 2 µg/mL | MIC50 [41]: 1 µg/mL (≈ 1.71 µM) | MIC90 [41]: 4 µg/mL (≈ 6.83 µM) | MIC90 [42]: 16 µg/mL (≈ 27.3 µM)

CC[C@H]1OC(=O)[C@H](C)C(=O)[C@H](C)[C@@H](O[C@@H]2O[C@H](C)C[C@H](N(C)C)[C@H]2O)[C@](C)(OC)C[C@@H](C)C(=O)[C@H](C)[C@H]2N(CCCCn3cnc(-c4cccnc4)c3)C(=O)O[C@]12C [telithromycin]
MIC [43]: 4 µg/mL (≈ 4.93 µM)

C=CC[C@@H]1/C=C(\C)C[C@H](C)C[C@H](OC)[C@H]2O[C@@](O)(C(=O)C(=O)N3CCCC[C@H]3C(=O)O[C@H](/C(C)=C/[C@@H]3CC[C@@H](O)[C@H](OC)C3)[C@H](C)[C@@H](O)CC1=O)[C@H](C)C[C@@H]2OC [Tacrolimus, tacrolimus]
concomitant drug bioavailability (AUC %) with POS vs alone [44]: 458%

Source: article PMC7129916 (Clinical Microbiology and Infection, 2015)
